Assay results reported in US7795290B2 (Genentech, Inc., priority 2004, dated 2010).

Columns and labels:
CASPASE-7 = molecular target: T1, CASPASE-7 (Homo sapiens, UniProt P55210); assay: HTS ATP-utilizing enzyme assay, off-chip mobility-shift (Caliper HTS 250); type: biochemical; settings: enzyme named = inhibitory activity/selectivity; test compound 10 μM; active = greater than three-sigma from mean
T1 sequence (P55210 24-198 limits assumed): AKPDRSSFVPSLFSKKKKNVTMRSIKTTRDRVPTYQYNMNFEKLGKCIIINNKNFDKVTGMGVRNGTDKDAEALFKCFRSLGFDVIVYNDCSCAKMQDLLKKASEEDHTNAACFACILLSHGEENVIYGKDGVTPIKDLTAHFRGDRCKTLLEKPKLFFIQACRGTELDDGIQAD
T1 sequence (P55210 207-303 limits assumed): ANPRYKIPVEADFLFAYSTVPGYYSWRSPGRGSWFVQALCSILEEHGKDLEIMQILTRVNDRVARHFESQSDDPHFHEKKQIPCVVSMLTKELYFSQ
Procedure, shortened: (§1)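 Single-point screen at 10 µM compound: kinase reactions ran 2.5 h at 20–22 °C and were stopped with termination buffer. Inhibition was read as the substrate-to-phosphopeptide ratio by microfluidic mobility shift, with EDTA and DMSO wells as controls. Hits were called by three-sigma limits.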

CHEK2 = CHEK2 (Homo sapiens, UniProt O96017); assay: as above; type: biochemical; settings: kinase named = inhibitory activity/selectivity; test compound 10 μM; active = greater than three-sigma from mean
Sequence of CHEK2 (O96017 whole entry): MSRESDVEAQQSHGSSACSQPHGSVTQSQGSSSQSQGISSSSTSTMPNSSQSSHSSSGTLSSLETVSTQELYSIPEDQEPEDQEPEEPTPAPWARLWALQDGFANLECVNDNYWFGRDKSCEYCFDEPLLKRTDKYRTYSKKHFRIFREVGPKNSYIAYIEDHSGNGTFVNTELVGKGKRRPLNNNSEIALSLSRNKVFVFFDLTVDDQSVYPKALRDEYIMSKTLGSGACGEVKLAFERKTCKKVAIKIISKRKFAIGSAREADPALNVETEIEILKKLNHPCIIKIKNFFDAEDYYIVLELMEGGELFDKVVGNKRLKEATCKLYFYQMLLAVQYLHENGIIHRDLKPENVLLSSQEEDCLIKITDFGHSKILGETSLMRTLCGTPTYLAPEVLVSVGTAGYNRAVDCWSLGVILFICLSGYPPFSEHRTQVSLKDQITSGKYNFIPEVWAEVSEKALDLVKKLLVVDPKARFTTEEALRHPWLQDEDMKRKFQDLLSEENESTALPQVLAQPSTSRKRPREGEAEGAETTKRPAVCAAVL
Procedure, shortened: as §1

Activity (CASPASE-7): CASPASE-7 | Activity (CHEK2): CHEK2
Structure (SMILES): COc1ccc(OC)c(-c2csc(N(CCCN(C)C)C(=O)c3ccccc3)n2)c1 [N-(4-(2,5-dimethoxyphenyl)thiazol-2-yl)-N-(3-(dimethylamino)propyl)benzamide]
